The structures appear in SMILES notation. Like-named read-outs stand apart in the source and are kept apart here.

Experiment [1] addresses T1, PMM/PGM (Pseudomonas aeruginosa, UniProt P26276, S108C).
T1 construct: gene algC
Nature of the experiment: biochemical.

In experiment [2] the target is T1, PMM/PGM. To be noted: read-out: Apparent dissociation constant; 50 mM MOPS pH 7.4, 1 mM MgCl2, 310 K; unphosphorylated enzyme.

T1 sequence (P26276 whole entry S108C): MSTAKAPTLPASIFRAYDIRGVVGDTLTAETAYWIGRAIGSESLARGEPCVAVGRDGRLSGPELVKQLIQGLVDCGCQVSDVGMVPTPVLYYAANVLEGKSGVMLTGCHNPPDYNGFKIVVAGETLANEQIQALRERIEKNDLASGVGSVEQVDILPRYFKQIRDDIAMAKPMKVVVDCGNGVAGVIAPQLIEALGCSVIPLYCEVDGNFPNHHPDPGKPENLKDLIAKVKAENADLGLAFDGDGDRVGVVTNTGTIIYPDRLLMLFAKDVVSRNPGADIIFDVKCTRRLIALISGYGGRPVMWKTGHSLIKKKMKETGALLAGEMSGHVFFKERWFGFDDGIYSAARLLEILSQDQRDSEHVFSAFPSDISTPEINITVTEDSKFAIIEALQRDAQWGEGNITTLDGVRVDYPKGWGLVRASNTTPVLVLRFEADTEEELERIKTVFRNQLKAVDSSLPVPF

Take `O=P(O)(O)O[C@H]1O[C@H](CO)[C@@H](O)[C@H](O)[C@H]1O` [G1P, glucose 1-phosphate]: on PMM/PGM [1], the Kd stood at 198 ± 48 µM.

On to `O=P(O)(O)OC[C@H]1OC(O)[C@H](O)[C@@H](O)[C@@H]1O` (stereo partly shown) [G6P, glucose 6-phosphate], for which, at PMM/PGM [2], the Kd was determined as 20 ± 7 µM.

For the molecule `O=P(O)(O)OC[C@H]1O[C@H](OP(=O)(O)O)[C@H](O)[C@@H](O)[C@@H]1O` [G16P, glucose 1,6-bisphosphate], the Kd on PMM/PGM [1] was 839 ± 221 µM.

Molecule `O=P(O)(O)O[C@H]1OC[C@@H](O)[C@H](O)[C@H]1O` [X1P, xylose 1-phosphate] yielded a Kd on PMM/PGM [1] of 11 ± 9 µM.

These data come from paper PMC5509744 (Scientific Reports, 2017).
